Results from patent publication US12377083B2 (WUHAN LL SCIENCE AND TECHNOLOGY DEVELOPMENT CO., LTD., priority 2019, dated 2025).

What was measured:
HepG2 cells = test: In vitro cytotoxicity assay in HepG2 cells, CCK-8 method; type: cell-based; conditions: 48 h
In short: (§1)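 Cells plated at 50,000/well, grown overnight to 80-90% confluence, then given fresh medium with graded compound or DMSO for 48 h at 37°C, 5% CO2. After PBS washes, CCK-8 added for 1.5 h at 37°C in the dark; OD450 read and CC50 calculated.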

[1] = system: A2058 (human melanoma cells); test: A2058 cell scratch (migration) assay with LPA; type: cell-based; conditions: 10 μM LPA, scratch area at 24 h
[2] = molecular target: hLPAR1 (human lysophosphatidic acid receptor 1) (Homo sapiens, UniProt Q92633); test: FLIPR assay of intracellular calcium increase induced by activation of hLPAR1 expressed in CHO-K1 cells; type: cell-based; conditions: CHO-K1 cells expressing hLPAR1, agonist oleoyl-L-α-lysophosphatidic acid 1 μM; read-out: LPAR1 IC50
In short: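 CHO-K1 cells expressing hLPAR1 were loaded with Fluo-4 AM for 1.0 h at 37° C, then preincubated 30 min at room temperature with compound. Oleoyl-LPA was added at 1 μM final, and calcium fluorescence was recorded by FLIPR for 2 min at 1-s intervals to assess antagonism.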

[3] = In vitro cytotoxicity assay in HepG2 cells, CCK-8 method; type: cell-based; conditions: human
In short: as §1

[4] = In vitro metabolic stability, mouse liver microsomes; type: in vitro ADME; conditions: 1 mg/mL liver microsome protein, 37° C., read-out: Metabolism in mouse liver microsome T½ min
Description: (§2) The in vitro metabolic stability of the compounds disclosed herein was determined through incubation of liver microsomes of various species. A proper amount of test compound was added into a liver microsome reaction system (1 mg/mL liver microsome protein, 25 U/mL glucose-6 phosphate dehydrogenase, 1 mM NADP, 6 mM D-glucose 6-phosphate and 5 mM MgCl2), and then the mixture was incubated in a water bath kettle at 37° C. to start reaction. At each time point, 100 μL of the reaction system was added into a centrifuge tube containing 400 μL of internal standard working solution (containing a 200 ng/mL solution of dexamethasone, diclofenac, tolbutamide and labetalol in acetonitrile) precooled at 0° C. so as to stop the reaction, and the mixture was then centrifuged at 10,000 g for 10 min at 4° C. The supernatant was collected for LC-MS assay so as to obtain the values of in vitro metabolic half-life of the test compounds in liver microsomes of various species.

[5] = In vitro metabolic stability, rat liver microsomes; type: in vitro ADME; conditions: 1 mg/mL liver microsome protein, 37° C., read-out: Metabolism in rat liver microsome T½ min
Description: as §2

[6] = In vitro metabolic stability, human liver microsomes; type: in vitro ADME; conditions: 1 mg/mL liver microsome protein, 37° C., read-out: Metabolism in human liver microsome T½ min
Description: as §2

Chain of hLPAR1 (human lysophosphatidic acid receptor 1) (Q92633 whole entry): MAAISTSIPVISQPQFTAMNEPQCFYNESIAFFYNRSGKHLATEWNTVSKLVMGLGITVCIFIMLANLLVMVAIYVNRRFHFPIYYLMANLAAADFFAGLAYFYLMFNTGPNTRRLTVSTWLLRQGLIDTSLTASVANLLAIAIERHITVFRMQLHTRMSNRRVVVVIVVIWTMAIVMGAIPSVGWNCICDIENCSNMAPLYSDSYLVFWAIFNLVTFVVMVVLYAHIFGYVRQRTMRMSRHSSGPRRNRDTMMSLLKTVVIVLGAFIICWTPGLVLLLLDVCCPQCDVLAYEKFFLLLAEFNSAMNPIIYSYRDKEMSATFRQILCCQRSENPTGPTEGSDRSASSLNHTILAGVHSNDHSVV

Compound | CC50 (HepG2 cells) | Cell migration inhibition rate (%) [1] | IC50 [2] | CC50 at 48 h [3] | half-life [4] | half-life [5] | half-life [6]
CN(C(=O)OCc1c(-c2ccc(O[C@H]3CCC[C@H](C(=O)O)C3)cn2)ncn1C)C1CCCC1 (racemic) [Compound 19, (+/−)-(1S,3S)-3-((6-(5-(((cyclopentyl(methyl)carbamoyl)oxy)methyl)-1-methyl-1H-imidazol-4-yl)pyridin-3-yl)oxy)cyclohexane-1-carboxylic Acid] | > 200 µM | C (C: 0-30%) | 0.3 to 10 µM | – | – | – | –
CN(C(=O)OCc1c(-c2ccc(O[C@H]3CCC[C@H](C(=O)O)C3)c(F)n2)cnn1C)C1CCCC1 (racemic) [Compound 62, (+/−)-(1S,3S)-3-((6-(5-(((cyclopentyl(methyl)carbamoyl)oxy)methyl)-1-methyl-1H-pyrazol-4-yl)-2-fluoropyridin-3-yl)oxy)cyclohexane-1-carboxylic Acid] | – | A (A: 50-70%) | < 0.05 µM | > 200 µM | > 0.5 h | ~30 min | > 30 min
CN(C(=O)OCc1c(-c2ccc(O[C@H]3CCC[C@H](C(=O)O)C3)c(F)c2)cnn1C)C1CCCC1 (racemic) [Compound 20, (+/−)-(1S,3S)-3-(4-(5-(((cyclopentyl(methyl)carbamoyl)oxy)methyl)-1-methyl-1H-pyrazol-4-yl)-2-fluorophenoxy)cyclohexane-1-carboxylic Acid] | – | B (B: 30-50%) | < 0.05 µM | > 200 µM | > 0.5 h | > 30 min | > 30 min
CN(C(=O)OCc1c(-c2ccc(O[C@H]3CCC[C@H](C(=O)O)C3)c(CF)n2)cnn1C)C1CCCC1 (racemic) [Compound 89] | – | A (A: 50-70%) | 0.05 to 0.3 µM | 14.3 µM | 61.2 h | 57.5 min | 449 min
Cc1nc(-c2onc(C)c2COC(=O)N(C)C2CCCC2)ccc1O[C@H]1CCC[C@H](C(=O)O)C1 (racemic) [Compound 36] | – | A (A: 50-70%) | < 0.05 µM | > 200 µM | 5.66 h | 28.4 min | 145 min
CN(C(=O)OCc1c(-c2ccc(O[C@H]3CCC[C@H](C(=O)O)C3)c(C(F)(F)F)n2)cnn1C)C1CCCC1 (racemic) [Compound 13, (+/−)-(1S,3S)-3-((6-(5-(((cyclopentyl(methyl)carbamoyl)oxy)methyl)-1-methyl-1H-pyrazol-4-yl)-2-(trifluoromethyl)pyridin-3-yl)oxy)cyclohexane-1-carboxylic Acid] | – | B (B: 30-50%) | 0.05 to 0.3 µM | > 200 µM | 3.55 h | 17.2 min | 68.8 min
CN(C(=O)OCc1ocnc1-c1ccc(O[C@H]2CCC[C@H](C(=O)O)C2)c(F)c1)C1CCCC1 (racemic) [Compound 15, (+/−)-(1S,3S)-3-(4-(5-(((cyclopentyl(methyl)carbamoyl)oxy)methyl)oxazol-4-yl)-2-fluorophenoxy)cyclohexane-1-carboxylic Acid] | – | C (C: 0-30%) | 0.3 to 10 µM | > 200 µM | > 0.5 h | > 30 min | > 30 min
